Assay results published in US11219658B2, “Composition for preventing or treating diseases caused by caffeine abuse including Evodia officinalis extract or evodiamine as active ingredient” (priority 2016, dated 2022).
Marks after values point to notes of the source that are not given here.

Legend:
[1] = system: mouse model having motor activity increased by central nervous system stimulation due to caffeine abuse; assay: Caffeine-induced central nervous system stimulation, motor activity in motor ability measurement box; format: in vivo, ICR male mice; settings: for excitatory motor activity time (center time), percentage of maintenance in the center of the box: solvent control 3%; for excitatory motor activity count (center count), percentage of movement in the center of the box: solvent control 16%; for total movement of excitatory motor activity: solvent control 7,107 cm
Method: (§1) 4-week-old ICR male mice (20 to 22 g) were provided from Koatech (Pyeongtaek, Korea), acclimated by breeding for 1 week or more in an animal breeding room in the School of Pharmacy at Sungkyunkwan University, and freely fed water and feed. The temperature (23±2° C.), humidity (55±10%) and a dark/light cycle (12 hrs) were automatically controlled.
To measure an inhibitory effect of evodiamine on caffeine-induced central nervous system stimulation, the mice prepared in Example 2 were divided into four groups of 12 mice, and treated with evodiamine and caffeine in a different manner. The first group was a group treated with distilled water containing 10% DMSO (control), the second group was a group treated with 10% DMSO-containing distilled water and 10 mg/kg of caffeine, the third group was a group treated with 10 mg/kg of evodiamine and 10 mg/kg of caffeine, and the fourth group was a group treated with 20 mg/kg of evodiamine and 10 mg/kg of caffeine.
Evodiamine was dissolved in 10% DMSO-containing distilled water, and orally administered to mice at doses of 0, 10 and 20 mg/kg, and 30 minutes later, intraperitoneally injected with caffeine 10 mg/kg of caffeine. Then, after 30 minutes, the mice were put into a motor ability measurement box (diameter: 30×30×30 (cm)), and measured for a total of 60 minutes using a video measurement and analysis system (Neurovision, Busan, Korea), followed by conversion of the improvement or inhibition in an increased excitatory motor activity count (center count), excitatory motor activity time (center time) and total movement of excitatory motor activity (total movement) to percentage (%).

[2] = system: mouse model having somnipathy caused by caffeine abuse; assay: Caffeine-induced somnipathy, Entobar (pentobarbital)-induced sleep onset and sleep duration; format: in vivo, ICR male mice; settings: for Change in sleep onset (% of Control) / Change in total sleep duration (% of Control): vehicle control = 100
Method: as §1
Specifically, the first group was a group treated with 10% DMSO-containing distilled water and 40 mg/kg of Entobar® as a control, the second group was a group treated with 10% DMSO-containing distilled water, 50 mg/kg of caffeine and 40 mg/kg of Entobar®, the third group was a group treated with 200 mg/kg of the Evodia officinalis extract, 50 mg/kg of caffeine and 40 mg/kg of Entobar®, and the fourth group was a group treated with 400 mg/kg of the Evodia officinalis extract, 50 mg/kg of caffeine and 40 mg/kg of Entobar®.
Regarding the administration method, the Evodia officinalis extract was dissolved in 10% DMSO-containing distilled water, orally administered to the mice at doses of 0, 200 and 400 mg/kg once a day for three days, and 30 minutes after the final administration. 50 mg/kg of caffeine was intraperitoneally injected into the mice. Thirty minutes after the caffeine injection, 40 mg/kg of Entobar® was intraperitoneally injected to induce sleep. Immediately after the Entobar® injection, the mice were put into each cage, and then sleep onset and sleep duration were measured.
To compare caffeine-induced somnipathy-improving effects of the Evodia officinalis extract and evodiamine, the Evodia officinalis hot water extract prepared in Example 3, ethanol extract thereof and evodiamine were orally administered to the mice prepared in Example 2 once a day for 3 days. 30 minutes after the final administration, 50 mg/kg of caffeine was intraperitoneally injected into the mice. After thirty minutes. 40 mg/kg of Entobar® was intraperitoneally injected to induce sleep, followed by measuring sleep onset and total sleep duration.

[3] = evodiamine 5 mg/kg p.o. once a day for 3 days + caffeine 50 mg/kg i.p. + Entobar 40 mg/kg i.p.
[4] = evodiamine 10 mg/kg p.o. once a day for 3 days + caffeine 50 mg/kg i.p. + Entobar 40 mg/kg i.p.
[5] = caffeine 50 mg/kg i.p. alone + Entobar 40 mg/kg i.p.

Row | SMILES | excitatory motor activity time (center time), percentage of maintenance in the center of the box ([1]; evodiamine 10 mg/kg p.o. + caffeine 10 mg/kg i.p., caffeine control 9%) [%] | excitatory motor activity count (center count), percentage of movement in the center of the box ([1]; evodiamine 10 mg/kg p.o. + caffeine 10 mg/kg i.p., caffeine control 23%) [%] | total movement of excitatory motor activity ([1]; evodiamine 10 mg/kg p.o. + caffeine 10 mg/kg i.p., caffeine control 15,078 cm) | excitatory motor activity time (center time), percentage of maintenance in the center of the box ([1]; evodiamine 20 mg/kg p.o. + caffeine 10 mg/kg i.p., caffeine control 9%) [%] | excitatory motor activity count (center count), percentage of movement in the center of the box ([1]; evodiamine 20 mg/kg p.o. + caffeine 10 mg/kg i.p., caffeine control 23%) [%] | total movement of excitatory motor activity ([1]; evodiamine 20 mg/kg p.o. + caffeine 10 mg/kg i.p., caffeine control 15,078 cm) | Change in sleep onset (% of Control) [2, 3] | Change in total sleep duration (% of Control) [2, 3] | Change in sleep onset (% of Control) [2, 4] | Change in total sleep duration (% of Control) [2, 4] | excitatory motor activity count (center count), percentage of movement in the center of the box ([1]; caffeine 10 mg/kg i.p. alone (10% DMSO vehicle p.o.), 60 min measurement) [%] | excitatory motor activity time (center time), percentage of maintenance in the center of the box ([1]; caffeine 10 mg/kg i.p. alone) [%] | total movement of excitatory motor activity ([1]; caffeine 10 mg/kg i.p. alone) | sleep onset ([2]; caffeine 50 mg/kg i.p. + Entobar 40 mg/kg i.p., control without caffeine 219 seconds) [s] | sleep duration ([2]; caffeine 50 mg/kg i.p. + Entobar 40 mg/kg i.p., control without caffeine 2,940 seconds) | Change in sleep onset (% of Control) [2, 5] | Change in total sleep duration (% of Control) [2, 5]
1 | CN1c2ccccc2C(=O)N2CCc3c([nH]c4ccccc34)C21 (centres unmarked) [evodiamine] | 7 | 20 | 12,734 cm | 5 | 19 | 10,910 cm | 138.7 % of Control | 100.5 # % of Control | 108.2 # % of Control | 94.0 % of Control | – | – | – | – | – | – | –
2 | Cn1c(=O)c2c(ncn2C)n(C)c1=O [caffeine, 1,3,7-trimethylxanthine] | – | – | – | – | – | – | – | – | – | – | 23 | 9 | 15,078 cm | 371 | 1,812 seconds | 166.8 *** % of Control | 57.4 ** % of Control
